For the assay, the system named is L1210 leukemia ip in BDF1 mice, survival T/C. As to the kind of experiment: NCI In Vivo Anticancer Drug Screen. Data for tumor model L1210 Leukemia (intraperitoneal) in B6D2F1 (BDF1) mice. The settings on record: endpoint: mean survival time, higher = longer survival. A digest of the protocol: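 Each compound was tested against a transplantable tumor grown in mice. The endpoint was survival, with treated animals benchmarked against vehicle controls as a simple ratio.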

[1] abbreviates: dose: 50.0 mg/kg/injection, schedule: Q01DX001 (ip), vehicle: carboxymethylcellulose (CMC).
The mark [2] stands for this setting: dose: 100.0 mg/kg/injection, schedule: Q01DX001 (ip), vehicle: carboxymethylcellulose (CMC).
Setting [3] is: dose: 200.0 mg/kg/injection, schedule: Q01DX001 (ip), vehicle: carboxymethylcellulose (CMC).
[4] abbreviates: dose: 400.0 mg/kg/injection, schedule: Q01DX001 (ip), vehicle: carboxymethylcellulose (CMC).
The mark [5] stands for this setting: dose: 400.0 mg/kg/injection, schedule: Q04DX002 (ip), vehicle: saline with Tween-80.
Where [6] appears, read: dose: 100.0 mg/kg/injection, schedule: Q01DX009 (ip), vehicle: Klucel (hydroxypropylcellulose) (HPC).
[7] abbreviates: dose: 200.0 mg/kg/injection, schedule: Q01DX009 (ip), vehicle: Klucel (hydroxypropylcellulose) (HPC).
Where [8] appears, read: dose: 50.0 mg/kg/injection, schedule: Q01DX001 (ip), vehicle: saline.
The mark [9] stands for this setting: dose: 100.0 mg/kg/injection, schedule: Q01DX001 (ip), vehicle: saline.
Where [10] appears, read: dose: 200.0 mg/kg/injection, schedule: Q01DX001 (ip), vehicle: saline.
Where [11] appears, read: dose: 400.0 mg/kg/injection, schedule: Q01DX001 (ip), vehicle: saline.
The mark [12] stands for this setting: dose: 100.0 mg/kg/injection, schedule: Q04DX002 (ip), vehicle: Klucel (hydroxypropylcellulose) (HPC).
Where [13] appears, read: dose: 200.0 mg/kg/injection, schedule: Q04DX002 (ip), vehicle: Klucel (hydroxypropylcellulose) (HPC).
[14] abbreviates: dose: 400.0 mg/kg/injection, schedule: Q04DX002 (ip), vehicle: Klucel (hydroxypropylcellulose) (HPC).

Values joined by “and” are separate entries in the source; they are usually repeats but may differ in a detail not shown here. Identical values can stand only once. Inconclusive results and toxic doses are left out.

On to `CCOC(=O)CC(C(C)=O)C(=O)OCC` (stereo unspecified), for which the T/C under setting [1] is 100 % of control, the T/C under setting [2] was 100 % of control, the T/C under setting [3] was 94 % of control and the T/C under setting [4] was 100 % of control.
Take `CCCC1C(CC)CC(CC)C(O)C1(CC)CO` (stereo unspecified): the T/C (dose: 100.0 mg/kg/injection, schedule: Q01DX009 (ip), vehicle: other) is 98 % of control; the T/C (dose: 200.0 mg/kg/injection, schedule: Q01DX009 (ip), vehicle: other) was 95 % of control; the T/C (dose: 400.0 mg/kg/injection, schedule: Q01DX009 (ip), vehicle: other) was 87 % of control.
For the compound `C[n+]1cccc(C#N)c1`, the T/C runs as follows: (dose: 37.5 mg/kg/injection, schedule: Q04DX003 (ip), vehicle: saline) 100 % of control; (dose: 75.0 mg/kg/injection, schedule: Q01DX001 (ip), vehicle: saline) 106 % of control; (dose: 75.0 mg/kg/injection, schedule: Q04DX003 (ip), vehicle: saline) 107 % of control; (dose: 150.0 mg/kg/injection, schedule: Q01DX001 (ip), vehicle: saline) 106 % of control; (dose: 150.0 mg/kg/injection, schedule: Q04DX003 (ip), vehicle: saline) 91 % of control.
For the compound `c1ccc([Si]([O][Sn]([c]2ccccc2)([c]2ccccc2)[c]2ccccc2)(c2ccccc2)c2ccccc2)cc1`, the T/C (dose: 25.6 mg/kg/injection, schedule: Q04DX002 (ip), vehicle: saline with Tween-80) was 89 % of control; the T/C (dose: 64.0 mg/kg/injection, schedule: Q04DX002 (ip), vehicle: saline with Tween-80) was 93 % of control; the T/C (dose: 160.0 mg/kg/injection, schedule: Q04DX002 (ip), vehicle: saline with Tween-80) was 93 % of control; the T/C under setting [5] is 89 % of control.
As for `CCOC(=O)C1C(=O)C(C(C(=O)OC2CC(C)CCC2C(C)C)N(CCCl)CCCl)C(=O)C(C(=O)OCC)C1c1ccc(O)cc1` (stereo unspecified) (tested in a mixture with another compound), the T/C is, setting by setting: (dose: 50.0 mg/kg/injection, schedule: Q01DX009 (ip), vehicle: Klucel (hydroxypropylcellulose) (HPC)) 93 % of control; under setting [6], 109 % of control; under setting [7], 111 % of control.
Consider `CCCCCCCCCCCCCCOS(=O)(=O)c1ccc(C)cc1`, for which the T/C under setting [8] is 102 % of control, the T/C under setting [9] was 102 % of control, the T/C under setting [10] is 96 % of control and the T/C under setting [11] is 100 % of control.
With `Brc1c(Br)c(Br)c(Br)c(Br)c1Br`, the T/C under setting [9] was 93 % of control, the T/C under setting [10] is 92 % of control and the T/C under setting [11] is 98 % of control.
Consider `CC12CCC3c4ccccc4CCC3(CO1)C2` (stereo unspecified), for which the T/C was 105 % of control under setting [6]; 95 % of control (dose: 100.0 mg/kg/injection, schedule: Q04DX003 (ip), vehicle: Klucel (hydroxypropylcellulose) (HPC)); 105 % of control under setting [7]; 106 % of control (dose: 200.0 mg/kg/injection, schedule: Q04DX003 (ip), vehicle: Klucel (hydroxypropylcellulose) (HPC)); 104 % of control (dose: 400.0 mg/kg/injection, schedule: Q01DX009 (ip), vehicle: Klucel (hydroxypropylcellulose) (HPC)); 95 % of control (dose: 400.0 mg/kg/injection, schedule: Q04DX003 (ip), vehicle: Klucel (hydroxypropylcellulose) (HPC)).
With `CCOC(=O)c1nnn(-c2cccnc2)c1-c1ccc([N+](=O)[O-])cc1`, the T/C is, setting by setting: under setting [12], 111 % of control; under setting [13], 101 % of control; under setting [14], 105 % of control.
Consider `FC(F)(F)c1cccc(-c2nc3nc(Cl)c(Cl)nc3[nH]2)c1`, for which the T/C was 93 % of control (dose: 12.5 mg/kg/injection, schedule: Q01DX009 (ip), vehicle: saline with Tween-80); 98 % of control (dose: 25.0 mg/kg/injection, schedule: Q01DX009 (ip), vehicle: saline with Tween-80); 90 % of control (dose: 50.0 mg/kg/injection, schedule: Q01DX009 (ip), vehicle: saline with Tween-80).
With `CC(CNC(=O)CCOS(C)(=O)=O)NC(=O)CCOS(C)(=O)=O` (stereo unspecified), the T/C is 104 % of control (dose: 22.0 mg/kg/injection, schedule: Q01DX Z (ip), vehicle: carboxymethylcellulose (CMC)); 111 % of control (dose: 33.0 mg/kg/injection, schedule: Q01DX Z (ip), vehicle: carboxymethylcellulose (CMC)); 100 % of control and 113 % of control (dose: 50.0 mg/kg/injection, schedule: Q01DX Z (ip), vehicle: carboxymethylcellulose (CMC)); 107 % of control (dose: 76.0 mg/kg/injection, schedule: Q01DX Z (ip), vehicle: carboxymethylcellulose (CMC)); 153 % of control (dose: 113.0 mg/kg/injection, schedule: Q01DX Z (ip), vehicle: carboxymethylcellulose (CMC)); 113 % of control (dose: 170.0 mg/kg/injection, schedule: Q01DX Z (ip), vehicle: carboxymethylcellulose (CMC)).
Turning to `COc1ccc(OC)c(-n2cccc2/C=N/NC(N)=O)c1`, the T/C was 97 % of control under setting [12], 108 % of control under setting [13] and 93 % of control under setting [14].
On to `COc1cc(NC(C)=O)c2ncccc2c1NC(C)=O`, for which the T/C was 96 % of control under setting [1], 102 % of control under setting [2], 96 % of control under setting [3] and 94 % of control under setting [4].
As for `OCCNC(c1ccc(Cl)cc1)C(O)c1ccc(Cl)cc1` (stereo unspecified), the T/C under setting [8] is 98 % of control, the T/C under setting [9] was 98 % of control and the T/C under setting [10] was 98 % of control.
Regarding `O=C(Nc1ccccc1)OC1CCCCC1OC(=O)Nc1ccccc1` (stereo unspecified), the T/C is, setting by setting: (dose: 100.0 mg/kg/injection, schedule: Q04DX002 (ip), vehicle: saline with Tween-80) 87 % of control; (dose: 200.0 mg/kg/injection, schedule: Q04DX002 (ip), vehicle: saline with Tween-80) 107 % of control; under setting [5], 97 % of control.
In the case of `CCOP(=O)(Nc1ccc2c(c1)C(O)c1ccccc1-2)OCC` (stereo unspecified), the T/C is, setting by setting: under setting [1], 100 % of control; under setting [2], 94 % of control; under setting [3], 103 % of control; under setting [4], 103 % of control.

Source of the values: PubChem BioAssay AID248 (DTP/NCI, 2004).
